The target of one assay is Histone deacetylase 1 (Homo sapiens, UniProt Q13547). The experiment in a line: Inhibition of recombinant human HDAC1 using Ac-Val-Gly-(NAc)Lys-AMC as substrate incubated for 30 mins by fluorescence based assay.
For assay [1], the target named is T1, Protein deacetylase HDAC6 (Homo sapiens, UniProt Q9UBN7).
T1 sequence (Q9UBN7 whole entry): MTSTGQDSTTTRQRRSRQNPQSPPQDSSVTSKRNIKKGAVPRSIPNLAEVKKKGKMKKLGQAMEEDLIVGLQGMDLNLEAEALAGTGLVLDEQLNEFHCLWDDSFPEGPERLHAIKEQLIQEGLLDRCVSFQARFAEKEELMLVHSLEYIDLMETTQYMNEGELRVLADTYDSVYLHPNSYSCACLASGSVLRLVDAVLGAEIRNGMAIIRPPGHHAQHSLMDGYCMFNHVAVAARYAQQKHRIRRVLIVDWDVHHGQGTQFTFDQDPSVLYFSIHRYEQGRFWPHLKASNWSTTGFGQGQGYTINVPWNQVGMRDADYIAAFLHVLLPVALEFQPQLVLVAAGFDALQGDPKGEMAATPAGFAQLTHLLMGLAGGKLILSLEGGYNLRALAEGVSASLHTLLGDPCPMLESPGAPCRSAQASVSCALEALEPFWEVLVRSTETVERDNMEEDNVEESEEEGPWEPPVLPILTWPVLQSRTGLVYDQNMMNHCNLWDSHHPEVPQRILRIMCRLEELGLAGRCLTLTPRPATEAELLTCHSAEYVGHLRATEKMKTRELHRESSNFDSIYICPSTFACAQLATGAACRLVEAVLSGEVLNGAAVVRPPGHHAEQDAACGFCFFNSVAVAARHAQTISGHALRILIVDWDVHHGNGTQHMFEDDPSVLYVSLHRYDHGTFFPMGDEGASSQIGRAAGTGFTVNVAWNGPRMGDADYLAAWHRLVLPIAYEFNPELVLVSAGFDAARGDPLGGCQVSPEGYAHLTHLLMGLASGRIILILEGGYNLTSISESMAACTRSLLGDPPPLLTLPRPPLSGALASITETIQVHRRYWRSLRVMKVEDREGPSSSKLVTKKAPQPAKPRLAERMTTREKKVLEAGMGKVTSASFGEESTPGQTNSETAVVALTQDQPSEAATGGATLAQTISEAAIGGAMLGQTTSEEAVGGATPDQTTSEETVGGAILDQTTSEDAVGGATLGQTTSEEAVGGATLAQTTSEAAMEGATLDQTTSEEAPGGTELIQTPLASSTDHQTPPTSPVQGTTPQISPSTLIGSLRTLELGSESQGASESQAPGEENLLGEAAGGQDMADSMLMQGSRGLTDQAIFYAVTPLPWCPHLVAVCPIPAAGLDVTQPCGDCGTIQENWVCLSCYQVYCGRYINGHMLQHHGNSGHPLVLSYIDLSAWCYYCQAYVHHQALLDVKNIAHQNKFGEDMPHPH
Kind of assay: Inhibition of recombinant human HDAC6 using Ac-Val-Gly-(NAc)Lys-AMC as substrate incubated for 30 mins by fluorescence based assay.

For another assay, the system named is MCF7. The experiment in a line: Antiproliferative activity against human MCF7 cells expressing ER assessed as inhibition of cell viability at high concentration incubated for 12 days with every 3 day treatment by Alamar blue staining based assay relative to control. The settings on record: time 12 day. In kind it is functional.

Histone deacetylase 1, sequence (Q13547 whole entry): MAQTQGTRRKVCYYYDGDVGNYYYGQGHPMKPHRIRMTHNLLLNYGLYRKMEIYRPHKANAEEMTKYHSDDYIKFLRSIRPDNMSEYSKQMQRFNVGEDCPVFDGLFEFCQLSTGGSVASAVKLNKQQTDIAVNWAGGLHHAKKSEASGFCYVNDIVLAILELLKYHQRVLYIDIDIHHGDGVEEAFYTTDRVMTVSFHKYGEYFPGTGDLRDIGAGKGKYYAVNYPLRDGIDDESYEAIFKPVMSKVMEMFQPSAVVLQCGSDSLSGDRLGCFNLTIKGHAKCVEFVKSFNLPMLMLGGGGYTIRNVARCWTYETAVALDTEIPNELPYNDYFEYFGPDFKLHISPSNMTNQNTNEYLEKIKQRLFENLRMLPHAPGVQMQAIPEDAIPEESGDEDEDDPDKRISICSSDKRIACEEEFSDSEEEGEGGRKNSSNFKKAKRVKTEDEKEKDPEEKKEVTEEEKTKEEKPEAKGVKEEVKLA

By IC50 is commonly meant the concentration at which inhibition is half-maximal. Regarding `O=C(CCCCOc1ccc(-c2sc3cc(O)ccc3c2C(=O)c2ccc(OCCN3CCCCC3)cc2)cc1)NO`, the IC50 at Histone deacetylase 1 worked out at 389 nM; in assay [1], 123 nM.
The matching figures for `O=C(CCCCCc1ccc(-c2sc3cc(O)ccc3c2C(=O)c2ccc(OCCN3CCCCC3)cc2)cc1)NO`: 12 nM and 297 nM.
For the compound `O=C(CCc1ccc(-c2sc3cc(O)ccc3c2C(=O)c2ccc(OCCN3CCCCC3)cc2)cc1)NO`, the IC50 at Histone deacetylase 1 came out at 464 nM; in assay [1], 202 nM. For the same compound, the “inhibition (INH)” value in the assay with MCF7 stood at 100%.
For `O=C(CCCCc1ccc(-c2sc3cc(O)ccc3c2C(=O)c2ccc(OCCN3CCCCC3)cc2)cc1)NO`, the IC50 turned out to be 257 nM on Histone deacetylase 1 and 221 nM in assay [1].
On the same counts, the results for `O=C(CCCCCCc1ccc(-c2sc3cc(O)ccc3c2C(=O)c2ccc(OCCN3CCCCC3)cc2)cc1)NO` are 344 nM and 333 nM.
The matching figures for `O=C(CCCCCOc1ccc(-c2sc3cc(O)ccc3c2C(=O)c2ccc(OCCN3CCCCC3)cc2)cc1)NO`: 132 nM and 21 nM.
`O=C(CCCOc1ccc(-c2sc3cc(O)ccc3c2C(=O)c2ccc(OCCN3CCCCC3)cc2)cc1)NO`: the IC50 turned out to be 5990 nM at Histone deacetylase 1 and 91 nM in assay [1]. Also, in the assay with MCF7, the “inhibition (INH)” value is given as 100%.

The values above are taken from ChEMBL document CHEMBL5550172 (Eur J Med Chem, 2024).
